The source of these data is patent publication US20250195513A1, “DEGRADATION OF IRAK4 BY CONJUGATION OF IRAK4 INHIBITORS WITH E3 LIGASE LIGAND AND METHODS OF USE” (BeiGene, Ltd., priority 2022, published 2025).

The target of test [1] is T1, IRAK4 (Homo sapiens, UniProt Q9NWZ3).
T1 construct: endogenous in cells; host or cells: Karpas299
T1 sequence (Q9NWZ3 1-460): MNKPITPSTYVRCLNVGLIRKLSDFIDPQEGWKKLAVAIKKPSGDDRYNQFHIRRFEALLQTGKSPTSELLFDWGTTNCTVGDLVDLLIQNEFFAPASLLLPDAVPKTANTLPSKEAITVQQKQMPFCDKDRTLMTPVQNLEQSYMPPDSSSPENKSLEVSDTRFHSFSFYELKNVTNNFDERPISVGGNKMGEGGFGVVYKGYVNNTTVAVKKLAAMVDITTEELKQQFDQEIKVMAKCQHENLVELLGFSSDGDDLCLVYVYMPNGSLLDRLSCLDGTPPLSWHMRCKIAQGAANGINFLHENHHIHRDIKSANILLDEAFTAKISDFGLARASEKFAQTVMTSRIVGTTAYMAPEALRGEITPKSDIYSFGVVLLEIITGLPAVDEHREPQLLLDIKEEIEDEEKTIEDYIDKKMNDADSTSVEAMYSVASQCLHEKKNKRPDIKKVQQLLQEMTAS
The test can be described thus: IRAK4 Degradation Assay (Karpas299, HTRF/TR-FRET). In kind it is cell-based. The settings on record: Karpas-299 cells; for Dmax / IRAK4 in Karpas-299 (24 h) Dmax (%): maximum percentage of degradation. The essentials: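 Compound potency as DC50 (IC50) came from four-parameter fits of percent IRAK4 degradation. IRAK4 was measured by HTRF (665/620 nm) in lysates of Karpas299 cells seeded at 0.2 million per well. Cells had been treated with compound dilutions for 5 or 24 h.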

The target in test [2] is T1, IRAK4. The test can be described thus: IRAK4 Degradation Assay with Human Serum (Karpas299, HTRF/TR-FRET). It is filed as cell-based. The settings on record: Karpas-299 in human serum, 24 hrs treatment; for DC50: read-out: IRAK4 degradtion with human serum assay DC50; for Dmax: read-out: IRAK4 degradtion with human serum assay Dmax (%). The essentials: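 Remaining IRAK4 measured by TR-FRET immunoassay on lysates of Karpas299 cells exposed 24 h to compound dilution series in human serum AB. DC50 derived from a Hill-slope fit of % degradation versus concentration.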

Setting [3] is: 24 h treatment, read-out: IRAK4 in Karpas-299 (24 h) Dmax (%).
[4] abbreviates: 24 h treatment, read-out: IRAK4 in Karpas-299 (24 h) DC50.

Consider `COC[C@H]1CN([C@H]2CC[C@H](n3cc4cc(NC(=O)c5ccc6cc(C#N)cnn56)c(C(C)(C)O)cc4n3)CC2)CCN1C(=O)[C@@H]1CCN(c2cc(F)c([C@H]3CCC(=O)NC3=O)c(F)c2)C1` [Example 313, 3-cyano-N-(2-((1R,4r)-4-((R)-4-((R)-1-(4-((R)-2,6-dioxopiperidin-3-yl)-3,5-difluorophenyl)pyrrolidine-3-carbonyl)-3-(methoxymethyl)piperazin-1-yl)cyclohexyl)-6-(2-hydroxypropan-2-yl)-2H-indazol-5-yl)pyrrolo[1,2-b]pyridazine-7-carboxamide], for which the maximal degradation (Dmax) on IRAK4 [1] (setting [3]) is 98%; at IRAK4 [2], 96%. The DC50 at IRAK4 [1] (setting [4]) was determined as 0.3 nM; on IRAK4 [2] it was 24 nM.

Consider `CC(C)(O)c1cc2nn([C@H]3C[C@H](N4CCN(C(=O)[C@@H]5CCN(c6cc(F)c([C@H]7CCC(=O)NC7=O)c(F)c6)C5)CC4)C3)cc2cc1NC(=O)c1ccc2cc(C#N)cnn12` [Example 329, 3-cyano-N-(2-((1R,3r)-3-(4-((R)-1-(4-((R)-2,6-dioxopiperidin-3-yl)-3,5-difluorophenyl)pyrrolidine-3-carbonyl)piperazin-1-yl)cyclobutyl)-6-(2-hydroxypropan-2-yl)-2H-indazol-5-yl)pyrrolo[1,2-b]pyridazine-7-carboxamide], for which the “IRAK4 in Karpas-299 (24 h) Dmax (%)” value on IRAK4 [1] (24 h treatment) was determined as 96%. The figures for the half-maximal degradation concentration (DC50) at IRAK4 [1] (setting [4]) and at IRAK4 [2] were 0.8 nM and 19 nM, respectively. Moreover, the “IRAK4 degradtion with human serum assay Dmax (%)” value at IRAK4 [2] is recorded as 98%.

Regarding `CC(C)(O)c1cc2nn(C3CCN(C4CCN(C(=O)C5CN(c6cc(F)c([C@H]7CCC(=O)NC7=O)c(F)c6)C5)CC4)CC3)cc2cc1NC(=O)c1ccc2cc(C#N)cnn12` [Example 346, (R)-3-cyano-N-(2-(1′-(1-(4-(2,6-dioxopiperidin-3-yl)-3,5-difluorophenyl)azetidine-3-carbonyl)-[1,4′-bipiperidin]-4-yl)-6-(2-hydroxypropan-2-yl)-2H-indazol-5-yl)pyrrolo[1,2-b]pyridazine-7-carboxamide], the maximal degradation (Dmax) on IRAK4 [1] (5 h treatment, read-out: IRAK4 in Karpas-299 (5 h) Dmax (%)) came to 93%; on IRAK4 [1] (setting [3]), 97%; at IRAK4 [2] it was 99%. The half-maximal degradation concentration (DC50) was found to be 1.6 nM on IRAK4 [1] (5 h treatment, read-out: IRAK4 in Karpas-299 (5 h) DC50); 1.4 nM on IRAK4 [1] (setting [4]); 5.5 nM at IRAK4 [2].

As for `CC(C)(O)c1cc2nn([C@H]3CC[C@H](N4CCN(C[C@H]5CCN(c6ccc7c(c6)C(=O)N(C6CCC(=O)NC6=O)C7=O)C5)CC4)CC3)cc2cc1NC(=O)c1ccc2cc(C#N)cnn12` (stereo partly drawn) [Example 432, 3-cyano-N-(2-((1R,4r)-4-(4-(((3R)-1-(2-(2,6-dioxopiperidin-3-yl)-1,3-dioxoisoindolin-5-yl)pyrrolidin-3-yl)methyl)piperazin-1-yl)cyclohexyl)-6-(2-hydroxypropan-2-yl)-2H-indazol-5-yl)pyrrolo[1,2-b]pyridazine-7-carboxamide], the results for the Dmax at IRAK4 [1] (setting [3]) and at IRAK4 [2] were 95% and 92%, respectively. Also, the results for the DC50 on IRAK4 [1] (setting [4]) and on IRAK4 [2] were 1.9 nM and 14 nM, respectively.

Regarding `CC(C)(O)c1cc2nn([C@H]3CC[C@H](N4CCN(CC5CN(c6cc(F)c([C@H]7CCC(=O)NC7=O)c(F)c6)C5)CC4)CC3)cc2cc1NC(=O)c1ccc2n1NCC(C#N)=C2` [Example 397, 3-cyano-N-(2-((1r,4r)-4-(4-((1-(4-((R)-2,6-dioxopiperidin-3-yl)-3,5-difluorophenyl)azetidin-3-yl)methyl)piperazin-1-yl)cyclohexyl)-6-(2-hydroxypropan-2-yl)-2H-indazol-5-yl)-1,2-dihydropyrrolo[1,2-b]pyridazine-7-carboxamide], the “IRAK4 in Karpas-299 (24 h) Dmax (%)” value on IRAK4 [1] (24 h treatment) amounted to 95%. For the same compound, the DC50 turned out to be 1.7 nM at IRAK4 [1] (setting [4]) and 12 nM at IRAK4 [2]. Also, at IRAK4 [2], the “IRAK4 degradtion with human serum assay Dmax (%)” value is 96%.

Turning to `COc1cc2nn([C@H]3CC[C@H](N4CCN(C(=O)C5CN(c6cc(F)c([C@H]7CCC(=O)NC7=O)c(F)c6)C5)CC4)CC3)cc2cc1NC(=O)c1ccc2cc(C#N)cnn12` [Example 336, 3-cyano-N-(2-((1r,4r)-4-(4-(1-(4-((R)-2,6-dioxopiperidin-3-yl)-3,5-difluorophenyl)azetidine-3-carbonyl)piperazin-1-yl)cyclohexyl)-6-methoxy-2H-indazol-5-yl)pyrrolo[1,2-b]pyridazine-7-carboxamide], the values for the Dmax at IRAK4 [1] (setting [3]) and on IRAK4 [2] were 100% and 92%, respectively. In addition, the results for the DC50 on IRAK4 [1] (setting [4]) and on IRAK4 [2] were 0.2 nM and 13 nM, respectively.

Take `COC[C@H]1CN(C(=O)C2CN(c3cc(F)c([C@H]4CCC(=O)NC4=O)c(F)c3)C2)CCN1[C@H]1CC[C@H](n2cc3cc(NC(=O)c4ccc5cc(C#N)cnn45)c(C(C)(C)O)cc3n2)CC1` [Example 184, 3-cyano-N-(2-((1R,4r)-4-((R)-4-(1-(4-((R)-2,6-dioxopiperidin-3-yl)-3,5-difluorophenyl)azetidine-3-carbonyl)-2-(methoxymethyl)piperazin-1-yl)cyclohexyl)-6-(2-hydroxypropan-2-yl)-2H-indazol-5-yl)pyrrolo[1,2-b]pyridazine-7-carboxamide]: the results for the maximal degradation (Dmax) on IRAK4 [1] (setting [3]) and at IRAK4 [2] were 96% and 97%, respectively. In addition, the values for the DC50 at IRAK4 [1] (setting [4]) and on IRAK4 [2] were 0.7 nM and 126 nM, respectively.

Take `C[C@H]1CN([C@H]2CC[C@H](n3cc4cc(NC(=O)c5ccc6cc(C#N)cnn56)c(C(C)(C)O)cc4n3)CC2)CCN1C(=O)C1CN(c2cc(F)c(N3CCC(=O)NC3=O)c(F)c2)C1` [Example 312, 3-cyano-N-(2-((1S,4r)-4-((S)-4-(1-(4-(2,4-dioxotetrahydropyrimidin-1(2H)-yl)-3,5-difluorophenyl)azetidine-3-carbonyl)-3-methylpiperazin-1-yl)cyclohexyl)-6-(2-hydroxypropan-2-yl)-2H-indazol-5-yl)pyrrolo[1,2-b]pyridazine-7-carboxamide]: the figures for the Dmax at IRAK4 [1] (setting [3]) and on IRAK4 [2] were 97% and 99%, respectively. Also, the DC50 was 2.4 nM on IRAK4 [1] (setting [4]) and 34 nM on IRAK4 [2].

Take `CC(C)(O)c1cc2nn([C@H]3CC[C@H](N4CCN(C5CN(c6cc(F)c([C@H]7CCC(=O)NC7=O)c(F)c6)C5)CC4=O)CC3)cc2cc1NC(=O)c1ccc2cc(C#N)cnn12` [Example 335, 3-cyano-N-(2-((1R,4r)-4-(4-(1-(4-((R)-2,6-dioxopiperidin-3-yl)-3,5-difluorophenyl)azetidin-3-yl)-2-oxopiperazin-1-yl)cyclohexyl)-6-(2-hydroxypropan-2-yl)-2H-indazol-5-yl)pyrrolo[1,2-b]pyridazine-7-carboxamide]: the greatest degradation seen (Dmax) came to 93% at IRAK4 [1] (setting [3]) and 99% on IRAK4 [2]. Further, the half-maximal degradation concentration (DC50) worked out at 0.6 nM on IRAK4 [1] (setting [4]) and 64 nM on IRAK4 [2].

`CC(C)(O)c1cc2nn([C@H]3CC[C@H](N4CCN(C5CN(c6cc(F)c([C@H]7CCC(=O)NC7=O)c(F)c6)C5)CC4)CC3)cc2cc1NC(=O)c1coc2cccnc12` [Example 404, N-(2-((1R,4r)-4-(4-(1-(4-((R)-2,6-dioxopiperidin-3-yl)-3,5-difluorophenyl)azetidin-3-yl)piperazin-1-yl)cyclohexyl)-6-(2-hydroxypropan-2-yl)-2H-indazol-5-yl)furo[3,2-b]pyridine-3-carboxamide]: the Dmax on IRAK4 [1] (setting [3]) stood at 93%; at IRAK4 [2] it was 94%. For the same compound, the 50% degradation concentration (DC50) is 0.8 nM on IRAK4 [1] (setting [4]) and 5.4 nM on IRAK4 [2].

For the compound `N#Cc1cnn2c(C(=O)Nc3cc4cn([C@H]5CC[C@H](N6CCN(C(=O)C7CN(c8cc(F)c([C@H]9CCC(=O)NC9=O)c(F)c8)C7)CC6)CC5)nc4c4c3OCO4)ccc2c1` [Example 355], the Dmax is 95% on IRAK4 [1] (setting [3]) and 73% at IRAK4 [2]. The half-maximal degradation concentration (DC50) was 0.4 nM on IRAK4 [1] (setting [4]) and 75 nM on IRAK4 [2].

For `COc1cc2nn([C@H]3CC[C@H](N4CCN(C5CCN(c6cc(F)c([C@H]7CCC(=O)NC7=O)c(F)c6)CC5)CC4)CC3)cc2cc1NC(=O)c1ccc2cc(C#N)cnn12` [Example 338, 3-cyano-N-(2-((1r,4r)-4-(4-(1-(4-((R)-2,6-dioxopiperidin-3-yl)-3,5-difluorophenyl)piperidin-4-yl)piperazin-1-yl)cyclohexyl)-6-methoxy-2H-indazol-5-yl)pyrrolo[1,2-b]pyridazine-7-carboxamide], the Dmax on IRAK4 [1] (setting [3]) was 95%; on IRAK4 [2], 92%. Moreover, the 50% degradation concentration (DC50) was determined as 1.1 nM on IRAK4 [1] (setting [4]) and 13 nM at IRAK4 [2].
